Laboratory results reported in the supplement of paper PMC10307832.

Key:
Assay in all cases: relative viability (nuclei count vs DMSO), 5 days (fraction); higher = more cells survive
[1] = compound: C1CC1C(=O)NC2=NNC3=C2C=CC(=C3)C4=CC(=CC=C4)C(=O)NC5CC5 [XMD13-2] + Nc1nc2[nH]cc(CCc3ccc(C(=O)N[C@@H](CCC(=O)O)C(=O)O)cc3)c2c(=O)[nH]1 [Pemetrexed] (partner 0.2 µM)
Outline: (§1)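 Medians of duplicate plates are given as relative viability. That measure is the nuclei count in treated wells divided by the count in vehicle wells. Counts were taken on 4× images of lung cancer cell lines in 1536-well plates, 5 days after pin-tool dosing the day after seeding with one drug alone or a fixed anchor-drug dose plus five library-drug doses (not always all listed) in √10 steps.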

[2] = compound: C1CC1C(=O)NC2=NNC3=C2C=CC(=C3)C4=CC(=CC=C4)C(=O)NC5CC5 [XMD13-2] + CC(C)C[C@H](NC(=O)[C@H](Cc1ccccc1)NC(=O)c1cnccn1)B(O)O [Bortezomib] (partner 0.002 µM)
Outline: as §1

[3] = compound: Cc1ccc(C(=O)Nc2cccc(C(F)(F)F)c2)cc1Nc1cncc(C(N)=O)c1 [ALW-II-49-7] + Cc1nc(NC(=O)N2CCC[C@H]2C(N)=O)sc1-c1ccnc(C(C)(C)C(F)(F)F)c1 [Alpelisib] (partner 2 µM)
Outline: as §1

[4] = compound: Cc1nc(Nc2ncc(C(=O)Nc3c(C)cccc3Cl)s2)cc(N2CCN(CCO)CC2)n1 [Dasatinib] + CCNC(=O)c1noc(-c2cc(C(C)C)c(O)cc2O)c1-c1ccc(CN2CCOCC2)cc1 [Luminespib] (partner 0.01 µM)
Outline: as §1

Cell Line | relative viability ([1]; first compound 0.05 µM) | relative viability ([1]; first compound 0.1581 µM) | relative viability ([1]; first compound 0.5 µM) | relative viability ([1]; first compound 1.581 µM) | relative viability ([1]; first compound 5 µM) | relative viability ([2]; first compound 0.05 µM) | relative viability ([2]; first compound 0.1581 µM) | relative viability ([2]; first compound 0.5 µM) | relative viability ([2]; first compound 1.581 µM) | relative viability ([2]; first compound 5 µM) | relative viability ([3]; first compound 0.08 µM) | relative viability ([3]; first compound 0.253 µM) | relative viability ([3]; first compound 0.8 µM) | relative viability ([3]; first compound 2.53 µM) | relative viability ([3]; first compound 8 µM) | relative viability ([4]; first compound 0.005 µM) | relative viability ([4]; first compound 0.01581 µM) | relative viability ([4]; first compound 0.05 µM) | relative viability ([4]; first compound 0.1581 µM) | relative viability ([4]; first compound 0.5 µM)
NCI-H2085 | 0.959 | 0.838 | 0.977 | 0.789 | 1.03 | 1.09 | 1.07 | 1.15 | 0.93 | 1.1 | 1.03 | 0.903 | 0.971 | 0.895 | 1.01 | 0.411 | 0.307 | 0.459 | 0.275 | 0.166
NCI-H2087 | 0.635 | 0.661 | 0.624 | 0.67 | 0.583 | 0.917 | 1.25 | 1.08 | 0.782 | 0.856 | 1.26 | 1.1 | 1.09 | 0.973 | 0.996 | 0.211 | 0.133 | 0.152 | 0.148 | 0.149
NCI-H2126 | 0.748 | 0.656 | 0.634 | 0.704 | 0.647 | 1.16 | 1.09 | 1.18 | 1.05 | 1.13 | 0.713 | 0.723 | 0.726 | 0.763 | 0.738 | 0.837 | 0.792 | 0.835 | 0.55 | 0.375
SK-LU-1 | 0.997 | 0.964 | 1.01 | 0.977 | 0.948 | 1.26 | 1.41 | 1.1 | 0.764 | 1.15 | 0.966 | 1.01 | 1.11 | 0.674 | 0.558 | 0.162 | 0.15 | 0.151 | 0.104 | 0.118
LCLC-97TM1 | 0.178 | 0.155 | 0.166 | 0.185 | 0.159 | 1.02 | 0.686 | 0.881 | 0.236 | 0.469 | 0.245 | 0.245 | 0.296 | 0.195 | 0.269 | 0.844 | 0.798 | 0.901 | 0.598 | 0.309
NCI-H1563 | 0.76 | 0.806 | 0.741 | 0.75 | 0.913 | 0.949 | 0.908 | 0.816 | 0.764 | 0.86 | 0.946 | 0.941 | 1.01 | 0.977 | 0.976 | 0.546 | 0.466 | 0.495 | 0.423 | 0.405
